Experimental data as given in patent US20080200492A1, “METHODS FOR THE TREATMENT OF ALCOHOL ABUSE, ADDICTION AND DEPENDENCY” (priority 2006, published 2008).

System: alcohol preferring rats
Test: Alcohol Preferring Rats, Study A: Chronic Administration (14 days)
Type: in vivo, rat
Experimental: Adult male selectively-bred alcohol preferring rats were used in this study. The selectively bred alcohol preferring rats are widely used to study the suppressant effects of compounds on voluntary alcohol intake (Faren et al. 2000; Rezvani et al, 1990, 1991, 1992a, 1992b, 1999, 2000, 2002; 2003; Murphy et al, 1988; Overstreet et al., 1992, 1999; Li and McBride, 1995).
The rats were housed individually under a constant room temperature of 22±1° C. and 12:12 light-dark cycle (7:00-19:00, dark). Animals were fed Agway Prolab Rat/Mouse/Hamster 3000 formula and water ad libitum.
Alcohol intake was determined using a standard two-bottle choice method (Murphy et al. 1988; McBride et al. 1990; Rezvani et al. 1990, 1991, 1993, 1995, 1997, Rezvani et al., 2007a,b; Rezvani and Grady, 1994). Animals were first given free access to water in a graduated Richter tube for 1 day. Next, they were given access to only a solution of 10% (v/v) ethanol for 3 consecutive days. During this period the animals became accustomed to drinking from Richter tubes and to the taste and pharmacological effects of alcohol. Thereafter, the animals were given free access to both water and a solution of 10% alcohol for 4 consecutive weeks and throughout of the study. The animals continued to have free access to food. Water and alcohol intake were recorded at 6 and 24 hour.
After establishment of a reliable baseline for alcohol, and water intake, the animals were randomly assigned to a treatment regimen. The animals were administered once a day, via gavage, either vehicle (0.5% methylcellulose) or compound of formula (I-A) (at 30 mg/kg) or naltrexone (at 20 mg/kg) for 14 consecutive days. A group of 6-7 animals was used for each treatment. Alcohol and water intake was recorded at 6 hrs and 24 hrs after administration.
The results are presented as a means ±SEM. Alcohol intake (g/kg) was calculated by multiplying the volume of alcohol consumed in ml by 10% and 0.7893 (ethanol density)/body weight in kg. Alcohol preference, expressed as percentage was calculated as (volume of alcohol consumed in ml/total fluid intake in ml)×100 (Rezvani and Grady, 1994; Rezvani et al., 2007a). Statistical differences between drug-treated and control groups was determined by using ANOVA and Tukey Student's t test for multiple comparison.
The results from Study A provide a measure of whether or not the animals develop tolerance to the suppressant effects of the test compound following a chronic treatment. In Tables 5-8 below, the abbreviation “(I-A)” stands for the compound of formula (I-A), the abbreviation “Naltx” stands for naltrexone, and the abbreviation “EtOH” stands for ethanol.

[1] = 30 mg/kg once a day, gavage, Day 1, 6 Hour Intake
[2] = 30 mg/kg once a day, gavage, Day 1, 24 Hour Intake
[3] = 30 mg/kg once a day, gavage, Day 2, 6 Hour Intake
[4] = 30 mg/kg once a day, gavage, Day 2, 24 Hour Intake
[5] = 30 mg/kg once a day, gavage, Day 3, 6 Hour Intake
[6] = 30 mg/kg once a day, gavage, Day 3, 24 Hour Intake
[7] = 30 mg/kg once a day, gavage, Day 4, 6 Hour Intake
[8] = 30 mg/kg once a day, gavage, Day 4, 24 Hour Intake
[9] = 30 mg/kg once a day, gavage, Day 5, 6 Hour Intake
[10] = 30 mg/kg once a day, gavage, Day 5, 24 Hour Intake
[11] = 30 mg/kg once a day, gavage, Day 6, 6 Hour Intake
[12] = 30 mg/kg once a day, gavage, Day 6, 24 Hour Intake
[13] = 30 mg/kg once a day, gavage, Day 7, 6 Hour Intake
[14] = 30 mg/kg once a day, gavage, Day 7, 24 Hour Intake
[15] = 30 mg/kg once a day, gavage, Day 8, 6 Hour Intake
[16] = 30 mg/kg once a day, gavage, Day 8, 24 Hour Intake
[17] = 30 mg/kg once a day, gavage, Day 9, 6 Hour Intake
[18] = 30 mg/kg once a day, gavage, Day 9, 24 Hour Intake
[19] = 30 mg/kg once a day, gavage, Day 10, 6 Hour Intake
[20] = 30 mg/kg once a day, gavage, Day 10, 24 Hour Intake
[21] = 30 mg/kg once a day, gavage, Day 11, 6 Hour Intake
[22] = 30 mg/kg once a day, gavage, Day 11, 24 Hour Intake
[23] = 30 mg/kg once a day, gavage, Day 12, 6 Hour Intake
[24] = 30 mg/kg once a day, gavage, Day 12, 24 Hour Intake
[25] = 30 mg/kg once a day, gavage, Day 13, 6 Hour Intake
[26] = 30 mg/kg once a day, gavage, Day 13, 24 Hour Intake
[27] = 30 mg/kg once a day, gavage, Day 14, 6 Hour Intake
[28] = 30 mg/kg once a day, gavage, Day 14, 24 Hour Intake

Cc1cccc2cccc(CN3CCC4(CC3)C(=O)N(C[C@H](O)CN)CN4c3ccc(F)cc3)c12 [Cmpd (I-A), 3-(3-amino-2-(R)-hydroxy-propyl)-1-(4-fluoro-phenyl)-8-(8-methyl-naphthalen-1-ylmethyl)-1,3,8-triazaspiro[4.5]decan-4-one]
Alcohol Intake [1]: 1.31 g/kg | Alcohol Preference [1]: 62 % EtOH | Alcohol Intake [2]: 4.04 g/kg | Alcohol Preference [2]: 72 % EtOH | Alcohol Intake [3]: 1.54 g/kg | Alcohol Preference [3]: 48 % EtOH | Alcohol Intake [4]: 3.71 g/kg | Alcohol Preference [4]: 56 % EtOH | Alcohol Intake [5]: 1.71 g/kg | Alcohol Preference [5]: 53 % EtOH | Alcohol Intake [6]: 3.39 g/kg | Alcohol Preference [6]: 54 % EtOH | Alcohol Intake [7]: 1.24 g/kg | Alcohol Preference [7]: 52 % EtOH | Alcohol Intake [8]: 2.68 g/kg | Alcohol Preference [8]: 50 % EtOH | Alcohol Intake [9]: 1.54 g/kg | Alcohol Preference [9]: 39 % EtOH | Alcohol Intake [10]: 2.97 g/kg | Alcohol Preference [10]: 47 % EtOH | Alcohol Intake [11]: 1.04 g/kg | Alcohol Preference [11]: 60 % EtOH | Alcohol Intake [12]: 2.99 g/kg | Alcohol Preference [12]: 59 % EtOH | Alcohol Intake [13]: 1.34 g/kg | Alcohol Preference [13]: 65 % EtOH | Alcohol Intake [14]: 3.60 g/kg | Alcohol Preference [14]: 76 % EtOH | Alcohol Intake [15]: 1.63 g/kg | Alcohol Preference [15]: 61 % EtOH | Alcohol Intake [16]: 3.97 g/kg | Alcohol Preference [16]: 70 % EtOH | Alcohol Intake [17]: 1.84 g/kg | Alcohol Preference [17]: 67 % EtOH | Alcohol Intake [18]: 3.78 g/kg | Alcohol Preference [18]: 68 % EtOH | Alcohol Intake [19]: 1.38 g/kg | Alcohol Preference [19]: 72 % EtOH | Alcohol Intake [20]: 3.00 g/kg | Alcohol Preference [20]: 73 % EtOH | Alcohol Intake [21]: 1.17 g/kg | Alcohol Preference [21]: 67 % EtOH | Alcohol Intake [22]: 2.86 g/kg | Alcohol Preference [22]: 81 % EtOH | Alcohol Intake [23]: 1.07 g/kg | Alcohol Preference [23]: 51 % EtOH | Alcohol Intake [24]: 3.03 g/kg | Alcohol Preference [24]: 69 % EtOH | Alcohol Intake [25]: 0.96 g/kg | Alcohol Preference [25]: 45 % EtOH | Alcohol Intake [26]: 2.67 g/kg | Alcohol Preference [26]: 67 % EtOH | Alcohol Intake [27]: 0.55 g/kg | Alcohol Preference [27]: 28 % EtOH | Alcohol Intake [28]: 1.91 g/kg | Alcohol Preference [28]: 45 % EtOH | Alcohol Intake (30 mg/kg once a day, at 6 and 24 hours, over the course of 14 days): showed a decrease in alcohol intake | Tolerance to the alcohol reducing effects (30 mg/kg once a day, over the 14 days of administration): did not develop tolerance

O=C1CC[C@@]2(O)[C@H]3Cc4ccc(O)c5c4[C@@]2(CCN3CC2CC2)[C@H]1O5 [Naltrexone, naltrexone, reference compound]
Alcohol Preference (20 mg/kg once a day, gavage, Day 1, 6 Hour Intake): 64 % EtOH | Alcohol Preference (20 mg/kg once a day, gavage, Day 1, 24 Hour Intake): 65 % EtOH | Alcohol Preference (20 mg/kg once a day, gavage, Day 2, 6 Hour Intake): 67 % EtOH | Alcohol Preference (20 mg/kg once a day, gavage, Day 2, 24 Hour Intake): 68 % EtOH | Alcohol Preference (20 mg/kg once a day, gavage, Day 3, 6 Hour Intake): 70 % EtOH | Alcohol Preference (20 mg/kg once a day, gavage, Day 3, 24 Hour Intake): 68 % EtOH | Alcohol Preference (20 mg/kg once a day, gavage, Day 4, 6 Hour Intake): 80 % EtOH | Alcohol Preference (20 mg/kg once a day, gavage, Day 4, 24 Hour Intake): 77 % EtOH | Alcohol Preference (20 mg/kg once a day, gavage, Day 5, 6 Hour Intake): 81 % EtOH | Alcohol Preference (20 mg/kg once a day, gavage, Day 5, 24 Hour Intake): 79 % EtOH | Alcohol Preference (20 mg/kg once a day, gavage, Day 6, 6 Hour Intake): 86 % EtOH | Alcohol Preference (20 mg/kg once a day, gavage, Day 6, 24 Hour Intake): 72 % EtOH | Alcohol Preference (20 mg/kg once a day, gavage, Day 7, 6 Hour Intake): 88 % EtOH | Alcohol Preference (20 mg/kg once a day, gavage, Day 7, 24 Hour Intake): 84 % EtOH | Alcohol Preference (20 mg/kg once a day, gavage, Day 8, 6 Hour Intake): 88 % EtOH | Alcohol Preference (20 mg/kg once a day, gavage, Day 8, 24 Hour Intake): 85 % EtOH | Alcohol Preference (20 mg/kg once a day, gavage, Day 9, 6 Hour Intake): 89 % EtOH | Alcohol Preference (20 mg/kg once a day, gavage, Day 9, 24 Hour Intake): 89 % EtOH | Alcohol Preference (20 mg/kg once a day, gavage, Day 10, 6 Hour Intake): 91 % EtOH | Alcohol Preference (20 mg/kg once a day, gavage, Day 10, 24 Hour Intake): 85 % EtOH | Alcohol Preference (20 mg/kg once a day, gavage, Day 11, 6 Hour Intake): 99 % EtOH | Alcohol Preference (20 mg/kg once a day, gavage, Day 11, 24 Hour Intake): 99 % EtOH | Alcohol Preference (20 mg/kg once a day, gavage, Day 12, 6 Hour Intake): 95 % EtOH | Alcohol Preference (20 mg/kg once a day, gavage, Day 12, 24 Hour Intake): 97 % EtOH | Alcohol Preference (20 mg/kg once a day, gavage, Day 13, 6 Hour Intake): 90 % EtOH | Alcohol Preference (20 mg/kg once a day, gavage, Day 13, 24 Hour Intake): 95 % EtOH | Alcohol Preference (20 mg/kg once a day, gavage, Day 14, 6 Hour Intake): 92 % EtOH | Alcohol Preference (20 mg/kg once a day, gavage, Day 14, 24 Hour Intake): 89 % EtOH
